Columns and labels:
[1] = tested on: Eimeria maxima (E. maxima) protozoa (sporozoites); test: Acid resistance of violacein: protozoal death rate after acid exposure; format: cell-based
Experimental: In the present example, the acid resistance of the violacein was to be evaluated. […] Then, it was neutralized (pH 7.0) by adding sodium hydroxide (NaOH) solution, and 200,000 Eimeria maxima (E. maxima) protozoa (sporozoites) were exposed to the violacein at various concentrations of 0.1 to 100 ppm diluted using PBS solution, and they were reacted at a temperature of 41° C. for 4 hours. In Table 11, the control group means a violacein treatment group without treating the acidic condition, and the protozoa alone means a group to which violacein was not treated.

[2] = tested on: Eimeria maxima (E. maxima) protozoa; test: Heat resistance of violacein: protozoal death rate after heat exposure; format: cell-based
Experimental: In the present example, the heat resistance of the violacein was to be evaluated. […] 200,000 Eimeria maxima (E. maxima) protozoa were reacted to the violacein at various concentrations of 0.1 to 100 ppm at a temperature of 41° C. for 4 hours, and the protozoal death rate (%) was measured by the similar method to Example 3 above, and this was shown in FIG. 5 and Table 12. In Table 12 below, the control group means a violacein solution without treating the high temperature condition, and the protozoa alone means a group to which violacein was not treated.

[3] = In vivo safety evaluation: violacein content remaining in body after feeding (LC/MS); settings: chicken (broiler), cecum luminal intestinal contents, oral, 50 ppm in feed; broilers fed feed comprising 50 ppm violacein for 7 days; read-out: Violacein content (mg/kg), Cecum luminal intestinal contents
Experimental: The safety evaluation of violacein was conducted in a breeding facility under the condition described in Example 1. At 7 days of age, broilers were fed a feed comprising 50 ppm violacein for 7 days, and an autopsy was conducted at 14 days of age, and the feed, appendix luminal intestinal contents, blood, spleen, liver and kidney were collected. For the feed used in formulation with the violacein, Daehanfeed Al-Choi product was used.
Each sample of the collected tissue was tested for the content of violacein through the HPLC method. For feed pretreatment, 1 g of each treatment group was weighed and diluted by adding 10 ? of MTBE solution, and then sonication was progressed for 1 hour, and filtration was performed using a […] syringe filter. Then, after evaporating the filtered sample for 1 hour, 1 ? , of 100% methanol was added. In addition, sonication was conducted for 1 minute, and it not dissolved, the supernatant was filtered once more using a […] syringe filter, and then placed in a vial for analysis. […] Then, the samples in which pretreatment was completed were analyzed using a set LC/MS instrument to measure the amount of violacein remaining in a body after feeding, and the result was shown in Table 13 below. In Table 13, ND (not detected) means not detected.

O=C1N=c2ccccc2=C1c1cc(-c2c[nH]c3ccc(O)cc23)[nH]c1O [Violacein, 3-(2-(5-Hydroxyindol-3-yl)-5-oxo-2-pyrrolin-4-ylidene)-2-indolinone]
Death rate according to violacein treatment condition ([1]; Control group (no acidic condition), 0.1 ppm): 64% | Death rate according to violacein treatment condition ([1]; Control group (no acidic condition), 1 ppm): 85% | Death rate according to violacein treatment condition ([1]; Control group (no acidic condition), 10 ppm): 100% | Death rate according to violacein treatment condition ([1]; Control group (no acidic condition), 100 ppm, 41° C. 4 hours): 100.00% | Acid resistance (killing efficacy after strong acidic condition) ([1]; acidic pH, 40° C., 1 hour, then neutralized): did not lose the killing efficacy | Death rate according to violacein treatment condition ([1]; pH 2, 1 h, 0.1 ppm): 64% | Death rate according to violacein treatment condition ([1]; pH 2, 1 h, 1 ppm): 84% | Death rate according to violacein treatment condition ([1]; pH 2, 1 h, 10 ppm): 99% | Death rate according to violacein treatment condition ([1]; pH 2, 1 h, 100 ppm): 100.00% | Death rate according to violacein treatment condition ([1]; pH 2.5, 1 h, 0.1 ppm): 61% | Death rate according to violacein treatment condition ([1]; pH 2.5, 1 h, 1 ppm): 83% | Death rate according to violacein treatment condition ([1]; pH 2.5, 1 h, 10 ppm): 99% | Death rate according to violacein treatment condition ([1]; pH 2.5, 1 h, 100 ppm): 100.00% | Death rate according to violacein treatment condition ([1]; pH 3, 1 h, 0.1 ppm): 63% | Death rate according to violacein treatment condition ([1]; pH 3, 1 h, 1 ppm): 86% | Death rate according to violacein treatment condition ([1]; pH 3, 1 h, 10 ppm): 99% | Death rate according to violacein treatment condition ([1]; pH 3, 1 h, 100 ppm): 100.00% | Death rate according to violacein treatment condition ([2]; 85° C., 10 min, 0.1 ppm): 62% | Death rate according to violacein treatment condition ([2]; 85° C., 10 min, 1 ppm): 89% | Death rate according to violacein treatment condition ([2]; 85° C., 10 min, 10 ppm): 99% | Death rate according to violacein treatment condition ([2]; 85° C., 10 min, 100 ppm): 100% | Death rate according to violacein treatment condition ([2]; 90° C., 10 min, 0.1 ppm): 65% | Death rate according to violacein treatment condition ([2]; 90° C., 10 min, 1 ppm): 88% | Death rate according to violacein treatment condition ([2]; 90° C., 10 min, 10 ppm): 99% | Death rate according to violacein treatment condition ([2]; 90° C., 10 min, 100 ppm): 100% | Death rate according to violacein treatment condition ([2]; 95° C., 10 min, 0.1 ppm): 69% | Death rate according to violacein treatment condition ([2]; 95° C., 10 min, 1 ppm): 90% | Death rate according to violacein treatment condition ([2]; 95° C., 10 min, 10 ppm): 99% | Death rate according to violacein treatment condition ([2]; 95° C., 10 min, 100 ppm): 100% | Death rate according to violacein treatment condition ([2]; Control group (no high temperature), 0.1 ppm): 64% | Death rate according to violacein treatment condition ([2]; Control group (no high temperature), 1 ppm): 85% | Death rate according to violacein treatment condition ([2]; Control group (no high temperature), 10 ppm): 100% | Death rate according to violacein treatment condition ([2]; Control group (no high temperature), 100 ppm, 41° C. 4 hours): 100% | Heat resistance (killing efficacy after high temperature) ([2]; high temperature (80 to 95° C.), 10 minutes): the protozoal killing efficacy of violacein did not appear | concentration at 7 days of feeding [3]: 2100 ng/g

Source: patent US12721835B2, “Anticoccidial composition comprising violacein, and use thereof” (CJ CHEILJEDANG CORPORATION, priority 2020, dated 2026)
